# In PMC11249632, “Activation of the Calcium-Sensing Receptor by a Subfraction of Amino Acids Contained in Thyroid Drainage Fluid” (ACS Pharmacology & Translational Science, 2024):
# Columns and labels:
# calcium-sensing receptor [1] = biological target: T1, calcium-sensing receptor (Homo sapiens, UniProt P41180, R990G); assay: Fura-2 intracellular calcium mobilization in receptor-expressing HEK293 cells; inhibition of Ca2+-mediated activation at neutral pH (IC50 […] at pH ~[…]); format: cell-based; set-up: gene CASR; recombinant human receptor stably expressed in HEK293 cells
# T1 sequence (P41180 20-1078 R990G): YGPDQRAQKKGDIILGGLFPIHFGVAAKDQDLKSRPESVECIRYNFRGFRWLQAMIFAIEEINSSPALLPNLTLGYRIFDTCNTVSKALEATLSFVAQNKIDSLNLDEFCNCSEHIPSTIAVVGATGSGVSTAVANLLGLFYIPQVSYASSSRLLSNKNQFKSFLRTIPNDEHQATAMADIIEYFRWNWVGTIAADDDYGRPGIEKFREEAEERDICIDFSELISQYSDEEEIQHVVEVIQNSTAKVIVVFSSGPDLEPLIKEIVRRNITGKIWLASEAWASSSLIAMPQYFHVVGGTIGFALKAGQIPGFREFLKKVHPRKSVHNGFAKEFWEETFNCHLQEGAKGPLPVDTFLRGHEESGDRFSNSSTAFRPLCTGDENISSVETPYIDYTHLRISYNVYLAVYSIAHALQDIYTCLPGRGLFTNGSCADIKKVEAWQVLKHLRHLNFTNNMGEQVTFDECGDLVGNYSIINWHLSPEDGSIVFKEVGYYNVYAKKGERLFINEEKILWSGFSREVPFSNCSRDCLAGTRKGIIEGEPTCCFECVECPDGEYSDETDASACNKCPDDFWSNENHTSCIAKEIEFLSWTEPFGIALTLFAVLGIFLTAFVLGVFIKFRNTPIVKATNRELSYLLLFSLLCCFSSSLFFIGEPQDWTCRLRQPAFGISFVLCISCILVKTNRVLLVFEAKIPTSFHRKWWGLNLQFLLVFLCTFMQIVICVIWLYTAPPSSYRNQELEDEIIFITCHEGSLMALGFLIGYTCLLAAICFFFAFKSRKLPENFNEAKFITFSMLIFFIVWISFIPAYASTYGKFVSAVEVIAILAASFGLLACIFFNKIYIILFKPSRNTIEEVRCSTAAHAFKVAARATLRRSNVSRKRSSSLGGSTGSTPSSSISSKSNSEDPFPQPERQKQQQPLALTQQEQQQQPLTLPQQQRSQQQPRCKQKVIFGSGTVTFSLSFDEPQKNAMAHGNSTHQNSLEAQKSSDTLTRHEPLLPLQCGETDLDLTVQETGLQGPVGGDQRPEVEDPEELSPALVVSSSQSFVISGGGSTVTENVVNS
# calcium-sensing receptor [2] = biological target: T1, calcium-sensing receptor; assay: Fura-2 intracellular calcium mobilization, receptor-expressing vs nontransfected HEK293 cells; format: cell-based; set-up: gene CASR; recombinant human receptor stably expressed in HEK293 cells
# calcium-sensing receptor [3] = biological target: T1, calcium-sensing receptor; assay: Fura-2 intracellular calcium mobilization, receptor-expressing vs nontransfected HEK293 cells, blocked by NPS-2143; format: cell-based; set-up: gene CASR; recombinant human receptor stably expressed in HEK293 cells
# calcium-sensing receptor [4] = biological target: T1, calcium-sensing receptor; set-up: gene CASR
smiles,measurement,setting,value
"CC(C)(Cc1ccc2ccccc2c1)NC[C@@H](O)COc1cccc(Cl)c1C#N [NPS-2143, 2-chloro-6-[(2R)-2-hydroxy-3-[(2-methyl-1-naphthalen-2-ylpropan-2-yl)amino]propoxy]benzonitrile]",IC50,calcium-sensing receptor [1],~500 nM
N[C@@H](CC(=O)O)C(=O)O [L-aspartate],"Fura-2 intracellular calcium mobilization, receptor-expressing vs nontransfected",calcium-sensing receptor [2],Concentration-dependent receptor activation by L-glutamate (A) and L-aspartate (B)
N[C@@H](CCC(=O)O)C(=O)O [L-glutamate],"Fura-2 intracellular calcium mobilization, receptor-expressing vs nontransfected",calcium-sensing receptor [3],~ 5 mM
N[C@@H](CCC(=O)N[C@@H](CS)C(=O)NCC(=O)O)C(=O)O [glutathione],Fura-2 intracellular calcium mobilization in receptor-expressing HEK293 cells,calcium-sensing receptor [4],> 3 mM
